One test relates to IL-6. In words: UV-stimulated induction of IL-6 gene expression in keratinocytes (qRT-PCR). Format: cell-based, human. Particulars: NHEKs, UV-B exposed, treated with 13-HODE as in Example 1; UV alone induction factor 10.1. From the text:
(§1) In the present example, the effect of 13-HODE on the expression of various proinflammatory marker genes in UV-B-stimulated keratinocytes (normal human epidermal keratinocytes, NHEKs) was investigated. The experimental procedure was largely identical to the procedure described in Example 1. Differences consisted merely in the selection of the gene-specific primers for carrying out the quantitative Real-Time PCR.
On the technique in general: Real-time PCR tracks product formation cycle by cycle.

The subject of the next test is IL-8. In words: UV-stimulated induction of IL-8 gene expression in keratinocytes (qRT-PCR). Particulars: NHEKs, UV-B exposed, treated with 13-HODE as in Example 1; UV alone induction factor 11.2. Format: cell-based, human.
From the text: as §1

The test system of test [1] is POMC. Description: Basal (not UV-induced) POMC gene expression in keratinocytes (qRT-PCR). Format: cell-based, human. To be noted: NHEKs, 10 μg/ml 13-HODE, no UV, 24 h + 24 h; standardized to 18S rRNA. The protocol: In the present example, the effect of 13-HODE on the POMC gene expression was investigated in keratinocytes which, in contrast to Example 1, have not been stimulated by prior UV exposure. For this purpose, firstly primary human epidermal keratinocytes were prepared from neonatal foreskin. The procedure is described in the following publications: Grether-Beck et al., J Invest Dermatol 2005, 125: 545-553; Grether-Beck et al., Exp Dermatol 2008, 17: 771-779. […]
The isolation of the whole-RNA and also the subsequent analysis of the gene expression by means of quantitative Real Time PCR (qRT-PCR) was carried out as described previously (Grether-Beck et al., J Invest Dermatol 2005, 125: 545-553; Grether-Beck et al., Exp Dermatol 2008, 17: 771-779). […] The RNA concentration was determined by means of photometric measurement at 260/280 nm (Biophotometer, Eppendorf, Germany). […] Besides the POMC expression, the expression of the 18s rRNA gene was also quantitatively determined as a reference. […]
The PCR reactions were carried out on an Opticon 1 (MJ Research, Waltham, Mass., USA). For all PCRs, double determinations of the biological triplicates were carried out, and for the evaluation averages of all measurements were calculated. […]

A further test relates to human skin. In words: Human in vivo study, maintenance of the skin tan (colorimetric skin colour). Particulars: 39 people, forearm, twice daily for 56 days, formulations with 0.1, 0.4, 1.0% 13-HODE vs formulation without. The protocol:
In order to test to what extent 13-HODE has an influence on maintaining the skin tan, the maintenance of the summer tan under the influence of 13-HODE in test formulations was investigated in a clinical study. The study was carried out over a period of 8 weeks from mid-September to mid-November in Germany. The subject of the investigation was the skin colour by means of colorimetric measurements using a Skin-Colorimeter® CL 400 from Courage+Khazaka electronic GmbH, Cologne, Germany. The measurements were made in each case on the inside of the left and right forearm on a defined area measuring 3 cm×3 cm at a distance of 11-14 cm from the wrist. The average value, which resulted from the individual values of six to nine repeat measurements, was registered. 39 people aged 21-55 years participated, of which 28 were female and 11 male. In each case, the starting value of the skin colour TO was determined prior to the treatment and the value T8 was determined after treatment for 56 days with test formulations. The application frequency was twice daily, morning and evening. The test persons were given one formulation for the left arm and one for the right arm (formulation A, B, C, D; as per the table below).

Another test deals with COX2. In words: UV-stimulated induction of COX2 gene expression in keratinocytes (qRT-PCR). The class given is cell-based, human. Particulars: NHEKs, UV-B exposed, treated with 13-HODE as in Example 1; UV alone induction factor 2.5.
From the text: as §1

In test [2] the test system is POMC. Description: UV-B-induced POMC gene expression in keratinocytes (qRT-PCR). Particulars: NHEKs, 3 μg/ml 13-HODE, 160 J/m^2 UV-B, harvest 6 h after exposure; standardized to 18S rRNA; UV alone factor 1.8; p<0.01. Format: cell-based, human. Here is the method: In the present example, the effect of 13-HODE on the POMC gene expression in UV-B-stimulated keratinocytes (normal human epidermal keratinocytes, NHEKs) was investigated. For this purpose, firstly primary human epidermal keratinocytes were prepared from neonatal foreskin. The procedure is described in the following publications: Grether-Beck et al., J Invest Dermatol 2005, 125: 545-553; and Grether-Beck et al., Exp Dermatol 2008, 17: 771-779. […]
After cultivation for 24 hours, the cells were exposed to a dose of 160 J/m^2 of UV-B radiation. […] The emitted power was determined using an IL 1700 Research Radiometer and SEE 240 UV-B photodetector (International Light Inc., Newbury Port, Mass.) and was 2.4 W/m^2 at a distance of 22 cm. […]
Isolation of whole-RNA and subsequent analysis of the gene expression by means of quantitative Real Time PCR (qRT-PCR) was carried out as described previously (Grether-Beck et al., J Invest Dermatol 2005, 125: 545-553; Grether-Beck et al., Exp Dermatol 2008, 17: 771-779). […] The RNA concentration was determined by means of photometric measurement at 260/280 nm (Biophotometer, Eppendorf, Germany). […] Besides the POMC expression, the expression of the 18s rRNA gene was also determined quantitatively as a reference. […]

The subject of the next test is TNF-α. In words: UV-stimulated induction of TNF-α gene expression in keratinocytes (qRT-PCR). To be noted: NHEKs, UV-B exposed, treated with 13-HODE as in Example 1; UV alone induction factor 7.4. The class given is cell-based, human.
From the text: as §1

Turning to `CCCCCC(O)C=CC=CCCCCCCCC(=O)O` (centres unmarked) [13-HODE, 13-hydroxy-9,11-octadecadienoic acid], the “expression level of IL-6 in UV-exposed cells” value with IL-6 was “considerably reduced expression level”. For the same compound, in the test with IL-8, the “expression level of IL-8 in UV-exposed cells” value was “considerably reduced expression level”. The “basal (not UV-stimulated) POMC expression compared to the control treated with the vehicle (DMSO)” value in the test with POMC [1] amounted to 1.2 fold. In the test with human skin, the “decrease in the blue-yellow parameter b* of the skin colour” value is listed as “reduced to differing degrees” and the “increase in the parameter ITA° of the skin colour” value is recorded as “reduced to differing degrees”. For the same compound, the “expression level of COX2 in UV-exposed cells” value in the test with COX2 is listed as “considerably reduced expression level”. The “POMC expression increased by a factor compared to the untreated control” value in the test with POMC [2] is reported as 4.9. Moreover, the “expression level of TNF-α in UV-exposed cells” value in the test with TNF-α was “considerably reduced expression level”.

For the origin of these results see US20130315849A1, “USE OF 13-HYDROXY-9,11-OCTADECADIENOIC ACID FOR TANNING HUMAN SKIN” (EVONIK GOLDSCHMIDT GMBH, priority 2010, published 2013).
